{
  "source": "patent US20240002229A1",
  "about": "“DEVICE FOR ENHANCING REACTION POTENTIAL OF OXIDIZING AGENTS” (Bis Science LLC, priority 2022, published 2024)",
  "format_in_all_cases": "cell-based",
  "key": {"[1]": {"test_system": "microbial counts", "experiment": "Independent research lab testing, microbial reduction, 5 minute contact time", "conditions": "1 part per million, 5 minute contact time with the ambient air", "procedure": "A small micron PEOA antimicrobial dry fog is administered into the ambient air through an existing HVAC system and device at a concentration of less than 1 part per million."}, "[2]": {"test_system": "E. coli", "experiment": "Microbial reduction by stored photon enhanced solution versus un-exposed hydrogen peroxide", "conditions": "samples at 4 weeks post exposure to photons; control not exposed"}, "[3]": {"test_system": "Staphylococcus epidermidis ATCC 12228", "experiment": "Residual effect test on inoculated agar carrier (Table 4)", "description": "The test substance or PEOA was applied to target which consisted of a microbe inoculated agar plate. The application of the PEOA can be by means such as a dropper, fog, mist or spray or any other acceptable means. […] PEOA was applied to inoculated plates at intervals of 1 minute, 5 minutes, 10 minutes, 30 minutes, 1 hour, 12 hours, 24 hours, 2, days, 5 days, and 7 days after radiation exposure. In one test, after 7 days, the PEOA was again subjected to photon emissions from 0.01 nm to 845 nm for the test labeled reactivation. An additional photon and or phonon exposure similar to the initial enhancement by photon and or phonons of 0.01 nm through 845 nm was the reactivation dose of photons."}},
  "data": [
    {"molecule": "OO", "note": "[standard hydrogen peroxide, hydrogen peroxide]", "values": [
      {"measurement": "microbial reduction", "setting": "[1]", "result": "little or no microbial reduction"}
    ]},
    {"molecule": "OO", "note": "[hydrogen peroxide]", "values": [
      {"measurement": "microbial (E. coli) reduction", "setting": "[2]", "result": 23.08, "unit": "%"}
    ]},
    {"molecule": "OO", "note": "[Control, hydrogen peroxide]", "values": [
      {"measurement": "CFU/carrier", "setting": "[3]; Control, time after radiation exposure N/A", "result": "6.04E+05", "unit": "CFU/carrier"},
      {"measurement": "CFU/carrier", "setting": "[3]; applied to carrier 2 Days after radiation exposure", "result": "3.00E+05", "unit": "CFU/carrier"},
      {"measurement": "CFU/carrier", "setting": "[3]; applied to carrier 5 Days after radiation exposure", "result": "4.50E+04", "unit": "CFU/carrier"},
      {"measurement": "CFU/carrier", "setting": "[3]; applied to carrier 7 Days after radiation exposure", "result": "9.80E+04", "unit": "CFU/carrier"},
      {"measurement": "CFU/carrier", "setting": "[3]; applied to carrier 12 Hours after radiation exposure", "result": "9.20E+04", "unit": "CFU/carrier"},
      {"measurement": "CFU/carrier", "setting": "[3]; applied to carrier 24 Hours after radiation exposure", "result": "1.33E+05", "unit": "CFU/carrier"}
    ]}
  ]
}
